Earlier results, collected in the CATMoS acute toxicity set (Mansouri et al. 2021).

Assay: rat acute oral toxicity
Conditions: in vivo

In order of rising LD50:
1. CCOP(=O)(OCC)SCCSCC  1.5 mg/kg
2. CCOP(=O)(OCC)SCCS(=O)CC (stereo unspecified)  2 mg/kg
3. CCOP(=O)(OCC)SCn1nc(C)ccc1=O  6.5 mg/kg
4. CNC(=O)Oc1ccc(N=CN(C)C)c(C)c1  7.2 mg/kg
5. CCOP(=S)(OCC)SCSCSP(=S)(OCC)OCC  8.5 mg/kg
6. CN(Sc1ccc(Cl)c(Cl)c1)C(=O)Oc1cccc2c1OC(C)(C)C2  25 mg/kg
7. CC(C(=O)O)c1ccc2c(c1)OCc1ccccc1C2=O (stereo unspecified)  34 mg/kg
8. COc1ccc(OC)c(C(O)CNC(=O)CN)c1 (stereo unspecified)  68.8 mg/kg
9. OC(CCl)CCl  110 mg/kg
10. O=[N+]([O-])c1nccs1  137 mg/kg
11. CC(C)=CCC(CCN1CCOCC1)(C(N)=O)c1cccc2ccccc12 (stereo unspecified)  177 mg/kg
12. CCCS(=O)(=O)/C=C/S(=O)(=O)CCC  200 mg/kg
13. Cc1cc(C(C)(C)C)cc(C)c1CC1=NCCN1  230 mg/kg
14. N#CC(Cl)(Cl)Cl  250 mg/kg
15. CC(C)(C)C(=O)CC#N  283 mg/kg
16. CN(C)C(CSS(=O)(=O)O)CSS(=O)(=O)O  333 mg/kg
17. CN1[C@@H]2CCC[C@H]1C[C@@H](NC(=O)c1nn(C)c3ccccc13)C2  350 mg/kg
18. CCN(CCCOS(C)(=O)=O)CCCOS(C)(=O)=O  375 mg/kg
19. CC(C(=O)O)c1ccc2c(c1)CC(=O)c1ccccc1S2 (stereo unspecified)  425 mg/kg
20. CCOP(=S)(OCC)Oc1ccc(N)cc1  450 mg/kg
21. COc1ccccc1N1CCN(CCCNc2cc(=O)n(C)c(=O)n2C)CC1  520 mg/kg
22. O=S(=O)(c1ccc(Cl)cc1)c1cc(Cl)c(Cl)cc1Cl  566 mg/kg
23. COc1cc2c(cc1OC)C1CC(=O)C(CCC#N)CN1CC2 (stereo unspecified)  620 mg/kg
24. CCCCCCCCCCCCCN1CC(C)OC(C)C1 (stereo unspecified)  650 mg/kg
25. CCCCCCCCCCCCCCCN  660 mg/kg
26. CC(=O)Oc1cc(C(C)C)c(OCCN(C)C)cc1C  740 mg/kg
27. CC(c1ccc(OC#N)cc1)c1ccc(OC#N)cc1  1000 mg/kg
28. CCC(=O)Nc1cccc(OC(=O)NC)c1  1000 mg/kg
29. CC1(C)[C@@H]2CC[C@@]1(C)[C@H](OC(=O)CSC#N)C2  1000 mg/kg
30. CCCCC(CC)CNCC(C)(N)CN(C)CC(CC)CCCC (stereo unspecified)  1000 mg/kg
31. c1cc(N(CC2CO2)CC2CO2)ccc1OCC1CO1 (stereo unspecified)  1040 mg/kg
32. CCn1c2c(c3cccc(N)c31)CCCC2  1090 mg/kg
33. c1ccc(C2CCCCC2)c(OCC2CNCCO2)c1 (stereo unspecified)  1120 mg/kg
34. O[C@@H](c1cc(C(F)(F)F)nc2c(Cl)cc(Cl)cc12)[C@@H]1CCCCN1  1130 mg/kg
35. CC(Cl)(Cl)CCl  1140 mg/kg
36. CC(=O)Nc1ccc2c(c1)sc1ccccc12  1200 mg/kg
37. CC(C)(Oc1ccc(C(=O)c2ccc(Cl)cc2)cc1)C(=O)O  1240 mg/kg
38. CCC1Cc2cc(CC(=O)O)ccc2O1 (stereo unspecified)  1300 mg/kg
39. CC(C)=CCC1C(=O)N(c2ccccc2)N(c2ccccc2)C1=O  1340 mg/kg
40. CCCCC(CC)CCC(CCC(CC)CC)OS(=O)(=O)O (stereo unspecified)  1430 mg/kg
41. OCc1cccc(Oc2ccccc2)c1  1500 mg/kg
42. CCNC1=Nc2ccc(Cl)cc2C(C)(c2ccccc2)O1 (stereo unspecified)  1500 mg/kg
43. Cc1ccc2oc(=O)ccc2c1  1680 mg/kg
44. CN(C)CCCN1C(=O)c2cc([N+](=O)[O-])ccc2Oc2ccccc21  1690 mg/kg
45. CCN1CCNCC1  2160 mg/kg
46. OCC(Br)C(Br)CO (stereo unspecified)  2460 mg/kg
47. CC(C)=CC1C(C(=O)O)C1(C)C (stereo unspecified)  2500 mg/kg
48. CCCCCCOCC(O)CO (stereo unspecified)  2500 mg/kg
49. CC(C)(C)c1ccccc1  3040 mg/kg
50. CCOC(=O)c1ccc(N)cc1  3040 mg/kg
51. O=C(Nc1nnc(CCN2c3ccccc3Sc3ccccc32)s1)c1ccccc1  3220 mg/kg
52. CC=Cc1ccccc1  3600 mg/kg
53. COC(=O)c1cccc(C)c1O  3840 mg/kg
54. CCOC(C)=O  5620 mg/kg
55. CCN(CC)CCOc1ccc(C(=C(Cl)c2ccccc2)c2ccccc2)cc1  5750 mg/kg
56. O=C(O)CCCC(=O)O  6000 mg/kg
57. C=COC(=O)C=CC  6500 mg/kg
58. O=C(O)c1ccc(C(=O)O)c2c(C(=O)O)ccc(C(=O)O)c12  7500 mg/kg
59. O=S(=O)(Nc1ncc(OCCO)cn1)c1ccccc1  8000 mg/kg
60. CC1CCC(=O)O1 (stereo unspecified)  8800 mg/kg
61. Cc1c(Cl)cc(-c2ccc(O)nn2)cc1Cl  12000 mg/kg
